From US12398121B2 (Nuvation Bio Inc., priority 2018, dated 2025)
Like-named read-outs stand apart in the source and are kept apart here.

Key:
Human recombinant PARP2 = Human recombinant PARP2 (Homo sapiens, UniProt Q9UGN5); experiment: RBC HotSpot PARP2 radioisotope-based filter binding assay; format: biochemical
Experimental: (§1) The following methods are for evaluating the in vitro biology properties of the test articles. • a. RBC HotSpot Poly(ADP-ribose) Polymerases 1 (PARP1) and Poly(ADP-ribose) Polymerases 2 (PARP2) Assays: The assay principle is radioisotope-based filter binding assay where incorporation of radioisotope-labeled NAD^+ into the substrate captured on filter is detected after washout free NAD^+. Data were analyzed using Excel and GraphPad Prism software for IC50 curve fits. Each assay was conducted with PJ34 as a positive control. • i. PARP1 assay: Human recombinant PARP1 at a final concentration of 2.5 nM was combined with histone H4 (20 μM) and test articles at various concentrations in reaction buffer (50 mM Tris-HCL, pH 8.0, 50 mM NaCl, 10 mM MgCl2, 1 mM DTT, 1% DMSO, and 20 μg/mL activated DNA). The solution was inoculated for 20 min at room temperature and the reaction initiated by adding [adenylate-^32P]-Nicotinamide Adenine Dinucleotide, ^32P-NAD^+ at a final concentration of 10 μM. After incubation for 2 hour at room temperature, the reaction mixture was filtered and washed with 0.75% phosphoric acid for radioactivity detection. • ii. PARP2 assay: Human recombinant PARP2 at a final concentration of 2.5 nM was combined with histone H3 (20 μM) and test articles at various concentrations in reaction buffer (50 mM Tris-HCL, pH 8.0, 50 mM NaCl, 10 mM MgCl2, 1 mM DTT, 1% DMSO, and 20 μg/mL activated DNA). The solution was inoculated for 20 min at room temperature and the reaction was initiated by adding [adenylate-^32P]-Nicotinamide Adenine Dinucleotide, ^32P-NAD^+ at a final concentration of 10 μM. After incubation for 2 hour at room temperature, the reaction mixture was filtered and washed with 0.75% phosphoric acid for radioactivity detection. • b. AR binding assay: AR in LNCaP cytosol was used for determining the binding affinity of test articles and the reference compound—progesterone (Sigma, Cat: E2785, St. Louis, MO). IC50s were determined using 8 concentrations/compound. Cytosol was plated at 200 μg/well (100 μL) into a 96-well conical polypropylene plate (Agilent, Cat: 5042-1385, Santa Clara, CA) and mixed with 3 μL of test compound. After adding 100 μL of ^3H-methyltrienolone (PerkinElmer, Cat: NET590250UC, San Jose, CA), the plate was sealed and shaken at 300 rpm at 4° C. for 24 hours. Post incubation, 100 μL of radioligand adsorption buffer containing 10 mM Tris-HCl, pH 7.4; 1.5 mM EDTA; 1 mM DTT; 0.25% charcoal; 0.0025% dextran was added to individual well. Plate was shaken for 15 min at 4′C followed by centrifugation at 3000 rpm for 30 min at 4° C. 150 μL of supernatant was transferred into scint-tube (PerkinElmer, Cat: 6000192) and mixed with 2 mL of Ultima Gold Cocktail (PerkinElmer, Cat: 6013329). Radioactivity was counted using a TriCarb 2910 TR scintillation counter (PerkinElmer). Inhibition of the radioactivity by test articles were calculated using the equation below: % Inhibition=(1−(Assay well−Average_LC)/(Average_HC−Average_LC))×100%.

Human recombinant PARP1 = Human recombinant PARP1 (Homo sapiens, UniProt P09874); experiment: RBC HotSpot PARP1 radioisotope-based filter binding assay; format: biochemical
Chain of Human recombinant PARP1 (P09874 whole entry): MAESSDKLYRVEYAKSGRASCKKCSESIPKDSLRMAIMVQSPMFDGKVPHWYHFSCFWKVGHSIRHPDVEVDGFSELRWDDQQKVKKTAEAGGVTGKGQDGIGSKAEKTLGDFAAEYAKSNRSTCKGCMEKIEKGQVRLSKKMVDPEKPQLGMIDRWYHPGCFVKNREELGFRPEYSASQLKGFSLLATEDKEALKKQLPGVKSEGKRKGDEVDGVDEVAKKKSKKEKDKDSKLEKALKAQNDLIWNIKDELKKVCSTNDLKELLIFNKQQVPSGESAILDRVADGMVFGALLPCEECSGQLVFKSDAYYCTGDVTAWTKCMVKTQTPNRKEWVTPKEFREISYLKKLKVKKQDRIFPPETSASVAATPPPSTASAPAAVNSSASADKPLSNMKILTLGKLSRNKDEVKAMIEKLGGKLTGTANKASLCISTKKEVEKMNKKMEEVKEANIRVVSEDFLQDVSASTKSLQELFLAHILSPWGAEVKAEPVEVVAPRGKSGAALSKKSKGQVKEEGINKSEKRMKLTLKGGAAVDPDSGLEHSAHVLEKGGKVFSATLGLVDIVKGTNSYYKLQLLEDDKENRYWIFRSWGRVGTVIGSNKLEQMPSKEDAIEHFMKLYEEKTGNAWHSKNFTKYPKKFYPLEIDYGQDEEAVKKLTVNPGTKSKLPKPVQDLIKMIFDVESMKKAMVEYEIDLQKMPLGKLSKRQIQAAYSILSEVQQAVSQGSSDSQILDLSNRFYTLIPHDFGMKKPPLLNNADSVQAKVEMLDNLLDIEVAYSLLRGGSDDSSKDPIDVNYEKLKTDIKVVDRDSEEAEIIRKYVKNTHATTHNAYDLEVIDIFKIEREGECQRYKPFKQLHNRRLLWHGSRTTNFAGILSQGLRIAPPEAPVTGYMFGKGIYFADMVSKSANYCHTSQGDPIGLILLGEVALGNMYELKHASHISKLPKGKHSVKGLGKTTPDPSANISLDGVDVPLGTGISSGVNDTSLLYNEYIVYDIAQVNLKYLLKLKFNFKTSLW
Experimental: as §1

[1] = 2.5 nM enzyme, histone H3, 10 μM 32P-NAD+, read-out: PARP2 IC50
[2] = 2.5 nM enzyme, histone H4, 10 μM 32P-NAD+, read-out: PARP1 IC50

Chain of Human recombinant PARP2 (Q9UGN5 whole entry): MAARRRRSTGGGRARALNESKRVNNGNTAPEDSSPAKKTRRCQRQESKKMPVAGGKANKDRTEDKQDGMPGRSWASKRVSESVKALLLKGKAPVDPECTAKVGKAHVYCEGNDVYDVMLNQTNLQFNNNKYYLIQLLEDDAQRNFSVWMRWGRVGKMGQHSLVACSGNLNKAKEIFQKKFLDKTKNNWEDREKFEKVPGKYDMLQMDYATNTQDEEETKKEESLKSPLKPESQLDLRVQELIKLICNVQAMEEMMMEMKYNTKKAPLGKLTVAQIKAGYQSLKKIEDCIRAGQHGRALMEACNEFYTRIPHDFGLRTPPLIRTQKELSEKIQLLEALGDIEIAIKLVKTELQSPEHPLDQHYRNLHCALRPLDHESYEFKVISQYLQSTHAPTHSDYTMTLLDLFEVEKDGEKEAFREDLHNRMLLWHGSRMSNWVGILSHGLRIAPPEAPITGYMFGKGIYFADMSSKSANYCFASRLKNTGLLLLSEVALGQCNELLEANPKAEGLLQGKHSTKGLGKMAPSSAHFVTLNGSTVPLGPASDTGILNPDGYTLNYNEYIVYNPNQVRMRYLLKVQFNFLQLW

Row | Compound | IC50 (Human recombinant PARP2) | IC50 (Human recombinant PARP1) | IC50 (Human recombinant PARP2; [1]) | IC50 (Human recombinant PARP1; [2])
1 | CC1(C)C(=O)N(c2ccc(C#N)c(C(F)(F)F)c2)C(=S)N1c1ccc(C(=O)NCCCCCC(=O)N2CCN(C(=O)c3cc(Cc4n[nH]c(=O)c5ccccc45)ccc3F)CC2)c(F)c1 [Compound 1.1, 4-(3-(4-cyano-3-(trifluoromethyl)phenyl)-5,5-dimethyl-4-oxo-2-thioxoimidazolidin-1-yl)-2-fluoro-N-(6-(4-(2-fluoro-5-((4-oxo-3,4-dihydrophthalazin-1-yl)methyl)benzoyl)piperazin-1-yl)-6-oxohexyl)benzamide] | 0.2 nM | 2 nM | – | –
2 | O=C(c1ccc(OCCN2CCN(C(=O)c3cc(Cc4n[nH]c(=O)c5ccccc45)ccc3F)CC2)cc1)c1c(-c2ccc(O)cc2)sc2cc(O)ccc12 [Compound 2.13, 4-(4-fluoro-3-(4-(2-(4-(6-hydroxy-2-(4-hydroxyphenyl)benzo[b]thiophene-3-carbonyl)phenoxy)ethyl)piperazine-1-carbonyl)benzyl)phthalazin-1(2H)-one] | – | – | 0.5 nM | 3.3 nM
3 | CCC(=C(c1ccc(O)cc1)c1ccc(OCCN2CCN(C(=O)c3cc(Cc4n[nH]c(=O)c5ccccc45)ccc3F)CC2)cc1)c1ccccc1 [Compound 2.14, 4-(4-fluoro-3-(4-(2-(4-(1-(4-hydroxyphenyl)-2-phenylbut-1-enyl)phenoxy)ethyl)piperazine-1-carbonyl)benzyl)pthalazin-1(2H)-one] | – | – | 12.4 nM | 274 nM
4 | CN(CCCCCC(=O)N1CCN(C(=O)c2cc(Cc3n[nH]c(=O)c4ccccc34)ccc2F)CC1)CCOc1ccc(C(=O)c2c(-c3ccc(O)cc3)sc3cc(O)ccc23)cc1 [Compound 2.4, 4-(4-fluoro-3-(4-(6-((2-(4-(6-hydroxy-2-(4-hydroxyphenyl)benzo[b]thiophene-3-carbonyl)phenoxy)ethyl)(methyl)amino)hexanoyl)piperazine-1-carbonyl)benzyl)phthalazin-1(2H)-one] | – | – | 0.3 nM | 4 nM
